The subject of one data set is HepG2 cells. In words: HepG2 cytotoxicity counter-screen. The note with it: cytotoxic activity against HepG2 cells.
For data set [1], the system named is P. falciparum male gametocytes. In words: P. falciparum Dual Gamete Formation Assay (PfDGFA), male readout (exflagellation). The data set is classed as cell-based, Plasmodium falciparum NF54. Conditions: for Selectivity Ratio M: HepG2 Tox50 versus male IC50; for inhibition at 2 µM / IC50: Plasmodium falciparum; for inhibition at 2 µM: 24h preincubation with gametocytes; for IC50: PfDGFA, 24 h incubation with gametocytes before induction, exflagellation readout, read-out: Male IC50; for HitlevelM: number of replicates with >50% inhibition in the male readout. The method, boiled down:
(§1)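 Male and female gamete formation were quantified by microscopy image analysis following 24 h incubation of mature NF54 gametocytes with compound and activation at 28°C with xanthurenic acid.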

Data set [2] deals with P. falciparum female gametocytes. In words: P. falciparum Dual Gamete Formation Assay (PfDGFA), female readout (Pfs25-positive female gametes). Type of data set: cell-based, Plasmodium falciparum NF54. The note with it: for Selectivity ratio F: HepG2 Tox50 versus female IC50; for inhibition at 2 µM / IC50: Plasmodium falciparum; for inhibition at 2 µM: 24h preincubation with gametocytes; for IC50: PfDGFA, 24 h incubation with gametocytes before induction, female gamete readout, read-out: Female IC50; for HitlevelF: number of replicates with >50% inhibition in the female readout. The method, boiled down:
as §1

Where [3] appears, read: 2µM, average of replicates, read-out: Average inhibition male (%).
Where [4] appears, read: 2µM, replicate R1, read-out: % inhibition male (individual replicates) R1.
Setting [5] is: 2µM, replicate R2, read-out: % inhibition male (individual replicates) R2.
The mark [6] stands for this setting: 2µM, replicate R3, read-out: % inhibition male (individual replicates) R3.
[7] abbreviates: 2µM, replicate R4, read-out: % inhibition male (individual replicates) R4.
Setting [8] is: 2µM, average of replicates, read-out: Average inhibition female (%).
[9] abbreviates: 2µM, replicate R1, read-out: % inhibition female (individual replicates) R1.
[10] abbreviates: 2µM, replicate R2, read-out: % inhibition female (individual replicates) R2.
The mark [11] stands for this setting: 2µM, replicate R3, read-out: % inhibition female (individual replicates) R3.
Where [12] appears, read: 2µM, replicate R4, read-out: % inhibition female (individual replicates) R4.
[13] abbreviates: PfDGFA at 2µM, average of replicates, read-out: Average inhibition male (%).
[14] abbreviates: PfDGFA at 2µM, replicate R1, read-out: % inhibition male (individual replicates) R1.
The mark [15] stands for this setting: PfDGFA at 2µM, replicate R2, read-out: % inhibition male (individual replicates) R2.
Where [16] appears, read: PfDGFA at 2µM, replicate R3, read-out: % inhibition male (individual replicates) R3.
Setting [17] is: PfDGFA at 2µM, replicate R4, read-out: % inhibition male (individual replicates) R4.
Where [18] appears, read: PfDGFA at 2µM, average of replicates, read-out: Average inhibition female (%).
[19] abbreviates: PfDGFA at 2µM, replicate R1, read-out: % inhibition female (individual replicates) R1.
Where [20] appears, read: PfDGFA at 2µM, replicate R2, read-out: % inhibition female (individual replicates) R2.
[21] abbreviates: PfDGFA at 2µM, replicate R3, read-out: % inhibition female (individual replicates) R3.
The mark [22] stands for this setting: PfDGFA at 2µM, replicate R4, read-out: % inhibition female (individual replicates) R4.

From article PMC10584170, “Machine learning-based phenotypic imaging to characterise the targetable biology of Plasmodium falciparum male gametocytes for the development of transmission-blocking antimalarials” (PLOS Pathogens, 2023) come the findings set out here.

Where two headings read alike, the source gives them in different places.

`COc1ccc(Nc2ncc(C#N)c(Nc3ccccc3C(N)=O)n2)cc1N1CCN(C)CC1.Cl` [TCMDC-134117] registered a Tox50 with HepG2 cells of 9.58 µM. Besides, the “Selectivity Ratio M” value in data set [1] came out at 100.74. Further, the inhibition at 2 µM was 97.4% in data set [1] (setting [3]); 98.2% in data set [1] (setting [4]); 100% in data set [1] (setting [5]); 93.5% in data set [1] (setting [6]); 98% in data set [1] (setting [7]); -4.3% in data set [2] (setting [8]). Besides, the inhibition at 2 µM in data set [2] (setting [9]) is -4.1%; in data set [2] (setting [10]), -6.5%; in data set [2] (setting [11]), -13.1%; in data set [2] (setting [12]) it was 6.5%. For the same molecule, the IC50 in data set [1] is 100 nM; in data set [2] it was above 10000 nM. In data set [2], the “Selectivity ratio F” value worked out at 0.96.

In the case of `CN1CCC(NCc2ccc(-c3cnc(NCc4ccccc4)nc3)cc2)CC1.O=C(O)C(F)(F)F` [TCMDC-134120], in the data set with HepG2 cells, the Tox50 came to 11.1 µM. Besides, the “Selectivity Ratio M” value in data set [1] turned out to be 11.62. Besides, the inhibition at 2 µM was found to be 86.5% in data set [1] (setting [13]); 83.5% in data set [1] (setting [14]); 87.5% in data set [1] (setting [15]); 86.1% in data set [1] (setting [16]); 88.9% in data set [1] (setting [17]); 24.9% in data set [2] (setting [18]). In addition, the inhibition at 2 µM in data set [2] (setting [19]) was 24.7%; in data set [2] (setting [20]), 16.8%; in data set [2] (setting [21]), -0.09%; in data set [2] (setting [22]) it was 58.4%. For the same molecule, the IC50 was found to be 960 nM in data set [1] and 6570 nM in data set [2]. In data set [1] (2µM), the HitlevelM came to 4. The “Selectivity ratio F” value in data set [2] was determined as 1.69. Further, the HitlevelF in data set [2] (2µM) amounted to 1.

In the data set with HepG2 cells, `CNC(=O)c1ccccc1Nc1nc(Nc2ccc(N3CCN(C)CC3)nc2)ncc1C.Cl` [TCMDC-134123] registered a Tox50 of 3.44 µM. In data set [1], the “Selectivity Ratio M” value is 14.02. Further, the inhibition at 2 µM was 96.1% in data set [1] (setting [3]); 93.9% in data set [1] (setting [4]); 95.8% in data set [1] (setting [5]); 98.7% in data set [1] (setting [7]); 0.025% in data set [2] (setting [8]); -2.2% in data set [2] (setting [9]). Besides, the inhibition at 2 µM in data set [2] (setting [10]) is -9.9%; in data set [2] (setting [11]), 9.7%; in data set [2] (setting [12]) it was 2.5%. Moreover, the IC50 was 250 nM in data set [1] and above 10000 nM in data set [2]. For the same molecule, in data set [2], the “Selectivity ratio F” value is given as 0.34.

In the data set on HepG2 cells, `CNC(=O)c1ccccc1Nc1nc(Nc2ccc(N3CCOCC3)cc2)ncc1Cl.Cl` [TCMDC-134144] gave a Tox50 of 0.82 µM. Besides, in data set [1], the “Selectivity Ratio M” value came out at 4.53. The inhibition at 2 µM in data set [1] (setting [13]) is 88.6%; in data set [1] (setting [14]), 93.6%; in data set [1] (setting [15]) it was 91.9%; in data set [1] (setting [16]), 82.6%; in data set [1] (setting [17]), 86.2%; in data set [2] (setting [18]), 8.6%. In addition, the inhibition at 2 µM in data set [2] (setting [19]) came out at 12.4%; in data set [2] (setting [20]), 10.5%; in data set [2] (setting [21]), 10.7%; in data set [2] (setting [22]) it was 0.76%. Besides, the results for the IC50 in data set [1] and in data set [2] were 180 nM and above 10000 nM, respectively. In data set [1] (2µM), this molecule showed a HitlevelM of 4. For the same molecule, the “Selectivity ratio F” value in data set [2] is listed as 0.08. In data set [2] (2µM), the HitlevelF came out at 0.

In the data set with HepG2 cells, `COc1ccc(Nc2ncc(OC)c(Nc3ccccc3C(N)=O)n2)cc1N1CCN(C)CC1.O=CO` [TCMDC-134149] gave a Tox50 of 5.24 µM. Moreover, the “Selectivity Ratio M” value in data set [1] stood at 28.52. The inhibition at 2 µM in data set [1] (setting [3]) stood at 94.7%; in data set [1] (setting [4]), 95.1%; in data set [1] (setting [5]), 101%; in data set [1] (setting [6]), 85.5%; in data set [1] (setting [7]) it was 97.6%; in data set [2] (setting [8]) it was 13.9%. The inhibition at 2 µM in data set [2] (setting [9]) turned out to be 17.6%; in data set [2] (setting [10]), 16.3%; in data set [2] (setting [11]), 5.9%; in data set [2] (setting [12]) it was 15.7%. Moreover, the IC50 in data set [1] was 180 nM; in data set [2] it was 7910 nM. Besides, the “Selectivity ratio F” value in data set [2] was 0.66.
